{"source": "patent US8969366B2", "about": "“Substituted pyrimidinylpyrrolopyridinone derivatives, process for their preparation and their use as kinase inhibitors” (Nerviano Medical Sciences S.R.L., priority 2009, dated 2015)", "format_in_all_cases": "cell-based", "key": {"[1]": {"system": "human melanoma cells A375 (with a mutated B-RAF)", "experiment": "In vitro cell proliferation assay, A375", "details": "A-375, 72 hours treatment, cell number by ATP monitoring system", "procedure": "(§1) In Vitro Cell Proliferation Assay Exponentially growing human melanoma cells A375 (with a mutated B-RAF) and human melanoma cells Mewo (with wild-type B-Raf) were seeded and incubated at 37° C. in a humidified 5% CO2 atmosphere. After 24 hours, scalar doses of the compound were added to the medium and cells oncubated for 72 hours. At the end of treatment, cells were washed and counted. Cell number was determined by a cellular adenosine triphosphate monitoring system. Cell proliferation was compared to control cells and the concentration inhibiting cell growth by 50% was calculated. p-MAPK (T202/Y204) ArrayScan Assay"}, "[2]": {"system": "human melanoma cells Mewo (with wild-type B-Raf)", "experiment": "In vitro cell proliferation assay, Mewo", "details": "72 hours treatment, cell number by ATP monitoring system", "procedure": "as §1"}, "[3]": {"system": "p-MAPK (T202/Y204) in A375 human melanoma cells, having a mutated B-RAF", "experiment": "p-MAPK (T202/Y204) ArrayScan assay", "details": "A-375, A375 cells treated 1.5 or 2 hours, cytoplasmatic p-MAPK fluorescence intensity, read-out: Array Scan A375 IC50", "procedure": "A375 human melanoma cells, having a mutated B-RAF, are seeded in 384-well poly-lysine coated plates (Matrix) at a density of 1000 cells/well with appropriate medium supplemented with 10% FCS and incubated for 16-24 hours. Cells are treated for 1.5 or 2 hours with increasing doses of compounds (starting dose 10 μM, dilution factor 2.5). At the end of the treatment cells are fixed with p-formaldehyde 3.7% for 15-30 min, then washed twice with D-PBS (80 µl/well) and permeabilized with D-PBS containing 0.1% Triton X-100 and 1% BSA (Sigma-Aldrich) for 15 minutes at room temperature (staining solution). Anti-phospho-MAPK (T202/Y204) monoclonal antibody E10 (Cell Signaling, cat. #9106) diluted 1:100 is added in staining solution and incubated for 1 hour at 37° C. After removal of the primary antibody solution, the anti-mouse Cy™2-conjugated (Green) secondary antibody (Amersham) diluted 1:500 in staining solution containing 2 μg/ml DAPI is added. The plate is incubated for 1 hour at 37° C., washed twice and then red with Cellomics' ArrayScan VTI (4 fields/well, CytoNucTrans algorithm).\nThe parameter “MEAN_RingAvgIntenCh2”, which measures the mean cytoplasmatic fluorescence intensity associated to p-MAPK staining, is reported as the final result."}}, "note": "pIC50: −log10 of the molar value. Structures can show the parent of a compound that is named as a salt."}
{"smiles": "Cn1c2c(c(-c3cccc(NC(=O)Nc4ccc(C(F)(F)F)cc4)c3)c1-c1ccnc(N)n1)C(=O)NCC2", "note": "[compound 1, 1-{3-[2-(2-Amino-pyrimidin-4-yl)-1-methyl-4-oxo-4,5,6,7-tetrahydro-1H-pyrrolo-[3,2-c]pyridin-3-yl]-phenyl}-3-(4-trifluoromethyl-phenyl)-urea]", "values": [{"measurement": "pIC50", "setting": "[1]", "result": 5.09}, {"measurement": "pIC50", "setting": "[2]", "result": "< 5.00"}, {"measurement": "pIC50", "setting": "[3]", "result": 5.25}]}
{"smiles": "Cn1c(-c2nc(N)ncc2C#Cc2cccc(O)c2)cc2c1CCNC2=O", "note": "[compound 2, 2-[2-Amino-5-(3-hydroxy-phenylethynyl)-pyrimidin-4-yl]-1-methyl-1,5,6,7-tetrahydro-pyrrolo[3,2-c]pyridin-4-one]", "values": [{"measurement": "pIC50", "setting": "[1]", "result": 5.22}, {"measurement": "pIC50", "setting": "[2]", "result": 5.10}, {"measurement": "pIC50", "setting": "[3]", "result": "< 5.00"}]}
{"smiles": "Nc1ncc(C#Cc2cccc(O)c2)c(-c2cc3c(n2CCF)CCNC3=O)n1", "note": "[compound 3, 2-[2-Amino-5-(3-hydroxy-phenylethynyl)-pyrimidin-4-yl]-1-(2-fluoro-ethyl)-1,5,6,7-tetrahydro-pyrrolo[3,2-c]pyridin-4-one]", "values": [{"measurement": "pIC50", "setting": "[1]", "result": 5.19}, {"measurement": "pIC50", "setting": "[2]", "result": 5.32}, {"measurement": "pIC50", "setting": "[3]", "result": 6.15}]}
{"smiles": "Cn1c(-c2ccnc(NC(=O)c3cc(Br)cs3)n2)cc2c1CCNC2=O", "note": "[compound 4, 4-Bromo-thiophene-2-carboxylic acid[4-(1-methyl-4-oxo-4,5,6,7-tetrahydro-1H-pyrrolo[3,2-c]pyridin-2-yl)-pyrimidin-2-yl]-amide]", "values": [{"measurement": "pIC50", "setting": "[1]", "result": 6.31}, {"measurement": "pIC50", "setting": "[2]", "result": 5.61}, {"measurement": "pIC50", "setting": "[3]", "result": 6.34}]}
{"smiles": "Cn1c(-c2ccnc(NCc3cccc(Cl)c3)n2)cc2c1CCNC2=O", "note": "[compound 6, 2-[2-(3-Chloro-benzylamino)-pyrimidin-4-yl]-1-methyl-1,5,6,7-tetrahydro-pyrrolo[3,2-c]pyridin-4-one hydrochloride]", "values": [{"measurement": "pIC50", "setting": "[1]", "result": 5.75}, {"measurement": "pIC50", "setting": "[2]", "result": 5.24}, {"measurement": "pIC50", "setting": "[3]", "result": 5.68}]}
{"smiles": "Cn1c(-c2ccnc(NCc3cc(Br)cs3)n2)cc2c1CCNC2=O", "note": "[compound 7, 2-{2-[(4-Bromo-thiophen-2-ylmethyl)-amino]-pyrimidin-4-yl}-1-methyl-1,5,6,7-tetrahydro-pyrrolo[3,2-c]pyridin-4-one hydrochloride]", "values": [{"measurement": "pIC50", "setting": "[1]", "result": 5.54}, {"measurement": "pIC50", "setting": "[2]", "result": 5.01}, {"measurement": "pIC50", "setting": "[3]", "result": 5.67}]}
{"smiles": "Cn1c(-c2ccnc(C#Cc3cccc(Cl)c3)n2)cc2c1CCNC2=O", "note": "[compound 8, 2-[2-(3-Chloro-phenylethynyl)-pyrimidin-4-yl]-1-methyl-1,5,6,7-tetrahydro-pyrrolo[3,2-c]pyridin-4-one]", "values": [{"measurement": "pIC50", "setting": "[1]", "result": 6.68}, {"measurement": "pIC50", "setting": "[2]", "result": 6.09}, {"measurement": "pIC50", "setting": "[3]", "result": 6.03}]}
{"smiles": "Cn1c(-c2ccnc(/C=C/c3cccc(Cl)c3)n2)cc2c1CCNC2=O", "note": "[compound 9, 2-{2-[(E)-2-(3-Chloro-phenyl)-vinyl]-pyrimidin-4-yl}-1-methyl-1,5,6,7-tetrahydro-pyrrolo[3,2-c]pyridin-4-one]", "values": [{"measurement": "pIC50", "setting": "[1]", "result": 6.43}, {"measurement": "pIC50", "setting": "[2]", "result": 5.91}, {"measurement": "pIC50", "setting": "[3]", "result": 6.40}]}
{"smiles": "Cn1c(-c2ccnc(NC(=O)c3cccc(Cl)c3)n2)cc2c1CCNC2=O", "note": "[compound 10, 3-Chloro-N-[4-(1-methyl-4-oxo-4,5,6,7-tetrahydro-1H-pyrrolo[3,2-c]pyridin-2-yl)-pyrimidin-2-yl]-benzamide]", "values": [{"measurement": "pIC50", "setting": "[1]", "result": 6.35}, {"measurement": "pIC50", "setting": "[2]", "result": 5.70}, {"measurement": "pIC50", "setting": "[3]", "result": 5.80}]}
{"smiles": "Cn1c(-c2ccnc(NC(=O)c3cccs3)n2)cc2c1CCNC2=O", "note": "[compound 11, Thiophene-2-carboxylic acid [4-(1-methyl-4-oxo-4,5,6,7-tetrahydro-1H-pyrrolo[3,2-c]pyridin-2-yl)-pyrimidin-2-yl]-amide]", "values": [{"measurement": "pIC50", "setting": "[1]", "result": 5.77}, {"measurement": "pIC50", "setting": "[2]", "result": 5.62}, {"measurement": "pIC50", "setting": "[3]", "result": 5.54}]}
{"smiles": "Cn1c(-c2ccnc(NC(=O)c3ccsc3)n2)cc2c1CCNC2=O", "note": "[compound 12, Thiophene-3-carboxylic acid [4-(1-methyl-4-oxo-4,5,6,7-tetrahydro-1H-pyrrolo-[3,2-c]pyridin-2-yl)-pyrimidin-2-yl]-amide]", "values": [{"measurement": "pIC50", "setting": "[1]", "result": 5.60}, {"measurement": "pIC50", "setting": "[2]", "result": 5.19}, {"measurement": "pIC50", "setting": "[3]", "result": 5.62}]}
{"smiles": "Cc1csc(C(=O)Nc2nccc(-c3cc4c(n3C)CCNC4=O)n2)c1", "note": "[compound 14, 4-Methyl-thiophene-2-carboxylic acid [4-(1-methyl-4-oxo-4,5,6,7-tetrahydro-1H-pyrrolo[3,2-c]pyridin-2-yl)-pyrimidin-2-yl]-amide]", "values": [{"measurement": "pIC50", "setting": "[1]", "result": 6.11}, {"measurement": "pIC50", "setting": "[2]", "result": 5.58}, {"measurement": "pIC50", "setting": "[3]", "result": 5.84}]}
